IC50 and Kd data for one compound are collected here from patent publication US11478451B1, “Macrocyclic chlorine substituted indole derivatives” (Bayer Aktiengesellschaft, priority 2017, dated 2022).

Experiment [1] deals with MV-4-11 cells. Description: Antiproliferation assay (CellTiter-Glo, 72 h), MV-4-11. To be noted: IC50, median; MV-4-11, 72 h; read-out: Antiproli MV-4-11 [M] median. In kind it is cell-based. The method in brief: (§1)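 Cells were exposed to compounds for 72 h at 37 °C in a humidified incubator, with rim wells excluded. Viability was read by CellTiter-Glo luminescence after a 10 min incubation. A parallel day 0 plate, read the same way, gave the time-zero baseline.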

Experiment [2] has as its system AMO-1 cells. Description: Antiproliferation assay (CellTiter-Glo, 72 h), AMO-1. In kind it is cell-based. To be noted: IC50, median; AMO-1, 72 h; read-out: Antiproli AMO-1 [M] median. The method in brief:
as §1

In experiment [3] the test system is HMC-1-8 cells. Briefly: Antiproliferation assay (CellTiter-Glo, 72 h), HMC-1-8. Format: cell-based. To be noted: IC50, median; HMC-1-8, 72 h; read-out: Antiproli HMC-1-8 [M] median. The method in brief:
as §1
(In general: Cellular ATP, detected with luciferase, serves as a proxy for viable cell number.)

The target in experiment [4] is MCL-1 (Homo sapiens (Human), UniProt Q07820, K194A/K197A/R201A). Briefly: Protein-compound interaction assay (SPR assay). To be noted: equilibrium dissociation constant, geometric mean, SPR 25° C. Format: binding. An excerpt: Protein-Compound Interaction Assay (SPR Assay)
Sequence of MCL-1 (Q07820 whole entry K194A/K197A/R201A, looked up): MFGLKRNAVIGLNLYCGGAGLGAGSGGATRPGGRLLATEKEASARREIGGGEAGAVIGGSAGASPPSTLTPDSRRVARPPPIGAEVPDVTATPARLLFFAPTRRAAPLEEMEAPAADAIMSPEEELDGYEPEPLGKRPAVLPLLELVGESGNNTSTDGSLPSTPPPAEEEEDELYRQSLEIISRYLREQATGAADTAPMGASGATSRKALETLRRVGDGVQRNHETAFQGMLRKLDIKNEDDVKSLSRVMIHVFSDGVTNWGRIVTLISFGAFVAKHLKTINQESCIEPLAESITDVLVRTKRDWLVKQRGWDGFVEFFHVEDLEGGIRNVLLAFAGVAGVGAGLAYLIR
The ability of the compounds described in this invention to bind to MCL-1 may be determined using surface plasmon resonance (SPR). This allows for the quantification of binding in terms of the equilibrium dissociation constant (KD [M]), as well as association and dissociation rate constants (kon [1/M 1/s] and koff [1/s], respectively). The measurements may be performed using Biacore® T200 or Biacore® S200 instruments (GE Healthcare).
Subsequently, a solution of 1 M ethanolamine-HCl (GE Healthcare) was injected to block unreacted groups, resulting in approximately 400-2500 response units (RU) of immobilized protein. A reference surface was generated by treatment with NHS-EDC and ethanolamine-HCl.
The double-referenced sensorgrams were fit to a simple reversible Langmuir 1:1 reaction mechanism as implemented in the Biacore® T200 and S200 evaluation software (T200 evaluation software version 2.0 and S200 evaluation software version 1.0, GE Healthcare).
(In general: SPR reads the build-up and loss of mass on a sensor chip optically.)

Where a name gives a salt, the structure may show the parent alone.

What is called Kd is the free concentration of one partner at which half of the binding sites on the other are occupied at equilibrium, for simple one-to-one binding. High values mean lower affinity, low ones higher affinity. Take `Cc1c2c(nn1C)CN(C)CCCCn1c(C(=O)O)c(CCCOc3cccc4cc(F)ccc34)c3ccc(Cl)c-2c31` (single isomer, unassigned; enantiomer 1) [Example 31, (+)-4-chloro-7-{3-[(6-fluoronaphthalen-1-yl)oxy]propyl}-2,3,14-trimethyl-10,11,12,13,14,15-hexahydro-2H-pyrazolo[3′,4′:8,9][1,6]diazacycloundecino[10,11,1-hi]indole-8-carboxylic acid-N-ethylethanamine salt (Enantiomer 1)]: the results for the IC50 in experiment [1], in experiment [2] and in experiment [3] were 2.75e-07 M, 1.7e-07 M and 1.9e-06 M, respectively. Besides, the Kd in experiment [4] is 0.43 nM.
